Experimental data taken from PubChem BioAssay (NCI).
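Cultured in 96-well plates, cells were exposed to test compound for 48 hours across five concentrations. TGI denotes the concentration required for complete inhibition of growth.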 The source made the active and inactive calls. Rule as the data show it: active = GI50 below about 0.43 µM; inactive = the rest.

Assays:
Test in all cases: NCI anticancer screen, dose series, 48 h
NCI-H522 lung = system: NCI-H522 lung
RXF 393 renal = system: RXF 393 renal
EKVX NSCLC = system: EKVX NSCLC
SW-620 colon = system: SW-620 colon
IGROV1 ovarian = system: IGROV1 ovarian
UACC-62 melanoma = system: UACC-62 melanoma
SNB-78 CNS = system: SNB-78 CNS
CCRF-CEM leukemia = system: CCRF-CEM leukemia
KM20L2 colon = system: KM20L2 colon
OVCAR-4 ovarian = system: OVCAR-4 ovarian
KM12 colon = system: KM12 colon
DMS 273 small cell lung = system: DMS 273 small cell lung
M19-MEL melanoma = system: M19-MEL melanoma
SN12C renal = system: SN12C renal
NCI-H460 lung = system: NCI-H460 lung
OVCAR-8 ovarian = system: OVCAR-8 ovarian
786-0 renal = system: 786-0 renal
HCT-116 colon = system: HCT-116 colon
LXFL 529 NSCLC = system: LXFL 529 NSCLC
HCC-2998 colon = system: HCC-2998 colon
SF-268 CNS = system: SF-268 CNS
LOX IMVI melanoma = system: LOX IMVI melanoma
SK-MEL-5 melanoma = system: SK-MEL-5 melanoma
XF 498 CNS = system: XF 498 CNS
SNB-75 CNS = system: SNB-75 CNS
TK-10 renal = system: TK-10 renal
COLO 205 colon = system: COLO 205 colon
UO-31 renal = system: UO-31 renal
DLD-1 colon = system: DLD-1 colon
SK-MEL-2 melanoma = system: SK-MEL-2 melanoma
OVCAR-5 ovarian = system: OVCAR-5 ovarian
SK-OV-3 ovarian = system: SK-OV-3 ovarian
A549 NSCLC = system: A549 NSCLC
SR leukemia = system: SR leukemia
M14 melanoma = system: M14 melanoma
CAKI-1 renal = system: CAKI-1 renal
MOLT-4 leukemia = system: MOLT-4 leukemia
MALME-3M melanoma = system: MALME-3M melanoma
SNB-19 CNS = system: SNB-19 CNS
SF-295 CNS = system: SF-295 CNS
NCI-H23 lung = system: NCI-H23 lung
K-562 leukemia = system: K-562 leukemia
SK-MEL-28 melanoma = system: SK-MEL-28 melanoma
SF-539 CNS = system: SF-539 CNS
HOP-92 NSCLC = system: HOP-92 NSCLC
HT29 colon = system: HT29 colon
NCI-H226 lung = system: NCI-H226 lung
OVCAR-3 ovarian = system: OVCAR-3 ovarian
A498 renal = system: A498 renal
ACHN renal = system: ACHN renal
HL-60(TB) leukemia = system: HL-60(TB) leukemia
HCT-15 colon = system: HCT-15 colon
HOP-62 NSCLC = system: HOP-62 NSCLC
U251 CNS = system: U251 CNS
RPMI-8226 leukemia = system: RPMI-8226 leukemia
DMS 114 small cell lung = system: DMS 114 small cell lung
UACC-257 melanoma = system: UACC-257 melanoma

COc1ccc(/C=c2/sc3n(c2=O)NC2(CCCCC2)NN=3)cc1
TGI (NCI-H522 lung): > 100 µM
TGI (RXF 393 renal): > 100 µM
TGI (EKVX NSCLC): > 100 µM
TGI (SW-620 colon): > 100 µM
TGI (IGROV1 ovarian): > 100 µM
TGI (UACC-62 melanoma): > 100 µM
TGI (SNB-78 CNS): > 100 µM
TGI (CCRF-CEM leukemia): > 100 µM
TGI (KM20L2 colon): > 100 µM
TGI (OVCAR-4 ovarian): > 100 µM
TGI (KM12 colon): > 100 µM
TGI (DMS 273 small cell lung): > 100 µM
TGI (M19-MEL melanoma): > 100 µM
TGI (SN12C renal): > 100 µM
TGI (NCI-H460 lung): > 100 µM
TGI (OVCAR-8 ovarian): > 100 µM
TGI (786-0 renal): > 100 µM
TGI (HCT-116 colon): > 100 µM
TGI (LXFL 529 NSCLC): > 100 µM
TGI (HCC-2998 colon): > 100 µM
TGI (SF-268 CNS): > 100 µM
TGI (LOX IMVI melanoma): > 100 µM
TGI (SK-MEL-5 melanoma): > 100 µM
TGI (XF 498 CNS): > 100 µM
TGI (SNB-75 CNS): > 100 µM
TGI (TK-10 renal): > 100 µM
TGI (COLO 205 colon): > 100 µM
TGI (UO-31 renal): > 100 µM
TGI (DLD-1 colon): > 100 µM
TGI (SK-MEL-2 melanoma): > 100 µM
TGI (OVCAR-5 ovarian): > 100 µM
TGI (SK-OV-3 ovarian): > 100 µM
TGI (A549 NSCLC): > 100 µM
TGI (SR leukemia): > 100 µM
TGI (M14 melanoma): > 100 µM
TGI (CAKI-1 renal): > 100 µM
TGI (MOLT-4 leukemia): > 100 µM
TGI (MALME-3M melanoma): > 100 µM
TGI (SNB-19 CNS): > 100 µM
TGI (SF-295 CNS): > 100 µM
TGI (NCI-H23 lung): > 100 µM
TGI (K-562 leukemia): > 100 µM
TGI (SK-MEL-28 melanoma): > 100 µM
TGI (SF-539 CNS): > 100 µM
TGI (HOP-92 NSCLC): > 100 µM
TGI (HT29 colon): > 100 µM
TGI (NCI-H226 lung): > 100 µM
TGI (OVCAR-3 ovarian): > 100 µM

Cc1nc(N)nn1C1OCC(O)C(O)C1O (centres undefined)
TGI (A498 renal): > 100 µM
TGI (NCI-H522 lung): > 100 µM
TGI (RXF 393 renal): > 100 µM
TGI (EKVX NSCLC): > 100 µM
TGI (ACHN renal): > 100 µM
TGI (HL-60(TB) leukemia): > 100 µM
TGI (SW-620 colon): > 100 µM
TGI (IGROV1 ovarian): > 100 µM
TGI (UACC-62 melanoma): > 100 µM
TGI (HCT-15 colon): > 100 µM
TGI (SNB-78 CNS): > 100 µM
TGI (CCRF-CEM leukemia): > 100 µM
TGI (KM20L2 colon): > 100 µM
TGI (HOP-62 NSCLC): > 100 µM
TGI (OVCAR-4 ovarian): > 100 µM
TGI (KM12 colon): > 100 µM
TGI (DMS 273 small cell lung): > 100 µM
TGI (SN12C renal): > 100 µM
TGI (NCI-H460 lung): > 100 µM
TGI (OVCAR-8 ovarian): > 100 µM
TGI (786-0 renal): > 100 µM
TGI (HCT-116 colon): > 100 µM
TGI (U251 CNS): > 100 µM
TGI (LXFL 529 NSCLC): > 100 µM
TGI (HCC-2998 colon): > 100 µM
TGI (SF-268 CNS): > 100 µM
TGI (SK-MEL-5 melanoma): > 100 µM
TGI (RPMI-8226 leukemia): > 100 µM
TGI (XF 498 CNS): > 100 µM
TGI (SNB-75 CNS): > 100 µM
TGI (TK-10 renal): > 100 µM
TGI (COLO 205 colon): > 100 µM
TGI (UO-31 renal): > 100 µM
TGI (DLD-1 colon): > 100 µM
TGI (SK-MEL-2 melanoma): > 100 µM
TGI (SK-OV-3 ovarian): > 100 µM
TGI (A549 NSCLC): > 100 µM
TGI (M14 melanoma): > 100 µM
TGI (CAKI-1 renal): > 100 µM
TGI (MOLT-4 leukemia): > 100 µM
TGI (MALME-3M melanoma): > 100 µM
TGI (SNB-19 CNS): > 100 µM
TGI (SF-295 CNS): > 100 µM
TGI (NCI-H23 lung): > 100 µM
TGI (K-562 leukemia): > 100 µM
TGI (SK-MEL-28 melanoma): > 100 µM
TGI (DMS 114 small cell lung): > 100 µM
TGI (UACC-257 melanoma): > 100 µM
TGI (SF-539 CNS): > 100 µM
TGI (HT29 colon): > 100 µM
TGI (OVCAR-3 ovarian): > 100 µM

C[C@@]1(C(=O)c2ccccc2)N(c2ccccc2)[C@@]1(C)C(=O)c1ccccc1
outcome (NCI-H522 lung): inactive
outcome (RXF 393 renal): inactive
outcome (EKVX NSCLC): inactive
outcome (ACHN renal): inactive
outcome (HL-60(TB) leukemia): inactive
outcome (SW-620 colon): inactive
outcome (IGROV1 ovarian): inactive
outcome (UACC-62 melanoma): inactive
outcome (HCT-15 colon): inactive
outcome (SNB-78 CNS): inactive
outcome (CCRF-CEM leukemia): inactive
outcome (KM20L2 colon): inactive
outcome (HOP-62 NSCLC): inactive
outcome (KM12 colon): inactive
outcome (DMS 273 small cell lung): inactive
outcome (SN12C renal): inactive
outcome (NCI-H460 lung): inactive
outcome (OVCAR-8 ovarian): inactive
outcome (786-0 renal): inactive
outcome (U251 CNS): inactive
outcome (LXFL 529 NSCLC): inactive
outcome (SF-268 CNS): inactive
outcome (LOX IMVI melanoma): inactive
outcome (RPMI-8226 leukemia): inactive
outcome (XF 498 CNS): inactive
outcome (SNB-75 CNS): inactive
outcome (TK-10 renal): inactive
outcome (COLO 205 colon): inactive
outcome (UO-31 renal): inactive
outcome (DLD-1 colon): inactive
outcome (SK-MEL-2 melanoma): inactive
outcome (OVCAR-5 ovarian): inactive
outcome (SK-OV-3 ovarian): inactive
outcome (A549 NSCLC): inactive
outcome (SR leukemia): inactive
outcome (M14 melanoma): inactive
outcome (CAKI-1 renal): inactive
outcome (MOLT-4 leukemia): inactive
outcome (MALME-3M melanoma): inactive
outcome (SNB-19 CNS): inactive
outcome (SF-295 CNS): inactive
outcome (NCI-H23 lung): inactive
outcome (K-562 leukemia): inactive
outcome (DMS 114 small cell lung): inactive
outcome (UACC-257 melanoma): inactive
outcome (SF-539 CNS): inactive
outcome (HOP-92 NSCLC): inactive
outcome (HT29 colon): inactive
outcome (NCI-H226 lung): inactive
outcome (OVCAR-3 ovarian): inactive
